Patent US20260374766A1, “METHODS FOR TREATING CANCER” (Antares Therapeutics, Inc., priority 2022, published 2026)
Where a name gives a salt, the structure may show the parent alone. Read-outs that look alike come from different tables or passages of the source.

How the values were obtained:
[1] = biological target: T1, p53 Y220C mutant protein (amino acid residues 94-293) (Homo sapiens, UniProt P04637, Y220C); test: Thermal Shift Assay (TSA), dTM; type: binding; settings: for ΔTm at 100 µM: 100 uM compound, read-out: TSA P53 Y220C dTM (100 uM); for ΔTm at 10 µM: 10 uM compound
T1 construct: p53 Y220C mutant protein (amino acid residues 94-293)
Description: Thermal Shift Assay (TSA) Protocol
5 μM recombinant p53 Y220C mutant protein (amino acid residues 94-293) was incubated with 10 μM or 100 μM compound for 3 hours at 20 °C in buffer containing 20 mM HEPES, pH7.4, 100 mM NaCl, 0.01% Pluronic F-127, and 1% DMSO in the presence of 400-fold diluted Sypro Orange (ThermoFisher Scientific catalog number 4461146), on a 384-well PCR plate (Applied Biosystems catalog number 4483285). The volume was 5 μL/well. The sealed plate was then loaded onto a QuantStudio 7 Flex instrument for melting temperature (TM) measurement. The temperature was increased from 30 °C to […], at a rate of 0.03 °C/second. Data were fit into a Boltzmann two-state model to determine the TM.

p53 Y220C = p53 Y220C (Homo sapiens, UniProt P04637, Y220C); test: Luciferase Reporter Assay (Luc), p53 response element, NClH1299 cells with inducible p53 Y220C; type: cell-based; settings: 6 hour; for AC50: read-out: Luc P53 Y220C AC50
Summary of the method: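 H1299 cells induced with 0.5 ug/mL doxycycline for 24 hours, then exposed to compound for 6 hours. p53 response-element luciferase read by One-Glo luminescence after 5 min shaking at room temperature.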

NUGC3 p53 Y220C = test: Cell Proliferation Assay (CellTiter-Glo, CTG), NUGC3 p53 Y220C; type: cell-based; settings: Homo sapiens, NUGC-3, 120 h, CellTiter-Glo, NUGC3 p53 Y220C, 5 days
Summary of the method: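 NClH1299 lines stably transduced with Tet-inducible p53 Y220C or R273H, plus NUGC3, were treated with compound for 5 days at 250-500 cells/well. IC50 derived from CellTiter-Glo luminescent signal after 10 min room-temperature incubation.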

H1299 p53 Y220C = test: Cell Proliferation Assay (CellTiter-Glo, CTG), H1299 p53 Y220C (NClH1299-inducible p53 Y220C); type: cell-based; settings: Homo sapiens, NCI-H1299, 120 h, 5 days
Summary of the method: (§1)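 Tet-One inducible p53 Y220C or R273H constructs were stably introduced into NCI-H1299 by lentiviral transduction; NUGC3 was used as is. Cells (250-500 per well) were exposed to compound for 5 days, then CellTiter-Glo was added for 10 min at room temperature and IC50 was calculated from luminescence.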

H1299 p53 R273H = test: Cell Proliferation Assay (CellTiter-Glo, CTG), H1299 p53 R273H (NClH1299-inducible p53 R273H); type: cell-based; settings: Homo sapiens, NCI-H1299, 120 h, CellTiter-Glo, H1299 p53 R273H, 5 days
Summary of the method: as §1

[2] = biological target: T1, p53 Y220C mutant protein (amino acid residues 94-293); test: Surface Plasmon Resonance (SPR) assay, Kd_kinetic; type: binding; settings: SPR, p53 Y220C, read-out: SPR P53 Y220C KD kinetic
Summary of the method: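 Kd values come from fitting sensorgrams to a 1:1 binding model. Sensorgrams were recorded on a Biacore 8K at 16 or 20 °C in pH 7.5 Tris buffer with 100 mM NaCl, 1 mM DTT, detergents and 1% DMSO.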

[3] = luciferase reporter, NClH1299 inducible p53 Y220C, 10 uM tool compound as positive control
[4] = luciferase reporter, NClH1299 inducible p53 Y220C

Row | Compound | ΔTm at 100 µM ([1]; thermal shift) [°C] | Emax (p53 Y220C; [3]) [%] | AC50 (p53 Y220C; [4]) [nM] | IC50 (H1299 p53 Y220C; CellTiter-Glo, H1299 p53 Y220C) [nM] | IC50 (H1299 p53 R273H) [nM] | IC50 (NUGC3 p53 Y220C) [nM] | other results
1 | COc1cc(S(C)(=O)=O)ccc1NCC#Cc1nc2c(NC3CCN(C(C)=O)CC3)cccn2c1CC(F)(F)F [Example 10, 1-{4-[(2-{3-[(4-methanesulfonyl-2-methoxyphenyl)amino]prop-1-yn-1-yl}-3-(2,2,2-trifluoroethyl)imidazo[1,2-a]pyridin-8-yl)amino]piperidin-1-yl}ethanone] | 5 to 10 | 80 to 90 | > 3000 | 1500 to 3000 | ≥ 10000 | > 3000 | 
2 | C=C(C)C(=O)Nc1cc(NC2CCN(C)CC2)c2nc(C#CCNc3ccc(C(=O)NC)cc3OC)c(CC(F)(F)F)n2c1 [Example 13, 3-methoxy-N-methyl-4-[(3-{8-[(1-methylpiperidin-4-yl)amino]-6-(2-methylprop-2-enamido)-3-(2,2,2-trifluoroethyl)imidazo[1,2-a]pyridin-2-yl}prop-2-yn-1-yl)amino]benzamide, formic acid salt] | 1 to 5 | < 70 |  | > 3000 | ≥ 10000 | > 3000 | 
3 | CC#Cc1nc2c(N[C@@H]3CCN(C)C[C@@H]3F)cccn2c1CC(F)(F)F [Example 18, (3S,4R)-3-fluoro-1-methyl-N-[2-(prop-1-yn-1-yl)-3-(2,2,2-trifluoroethyl)imidazo[1,2-a]pyridin-8-yl]piperidin-4-amine] | 5 to 10 | < 70 | > 3000 | > 3000 | ≥ 10000 |  | Kd ([2]; kinetic KD): 10 to 100 nM
4 | CC#Cc1nc2c(NC3CCN(C)CC3)cccn2c1CC(F)(F)F [Example 19, 1-methyl-N-[2-(prop-1-yn-1-yl)-3-(2,2,2-trifluoroethyl)imidazo[1,2-a]pyridin-8-yl]piperidin-4-amine] | 5 to 10 | < 70 | > 3000 | > 3000 | ≥ 10000 |  | Kd ([2]; kinetic KD): 100 to 1000 nM
5 | C=CC(=O)Nc1c(C#CCNc2ccc(C(=O)NC)cc2OC)nc2c(N[C@@H]3CCN(C)C[C@@H]3F)cccn12 [Example 23, 4-{[3-(8-{[(3S,4R)-3-fluoro-1-methylpiperidin-4-yl]amino}-3-(prop-2-enamido)imidazo[1,2-a]pyridin-2-yl)prop-2-yn-1-yl]amino}-3-methoxy-N-methylbenzamide] | 5 to 10 | < 70 | > 3000 | > 3000 | ≥ 10000 | > 3000 | 
6 | C=CC(=O)N(C)c1c(C#CCNc2ccc(C(=O)NC)cc2OC)nc2c(N[C@@H]3CCN(C)C[C@@H]3F)cccn12 [Example 26, 4-{[3-(8-{[(3S,4R)-3-fluoro-1-methylpiperidin-4-yl]amino}-3-(N-methylprop-2-enamido)imidazo[1,2-a]pyridine-2-yl)prop-2-yn-1-yl]amino}-3-methoxy-N-methylbenzamide] | 5 to 10 | < 70 | > 3000 | > 3000 | ≥ 10000 | > 3000 | 
7 | COc1cc(S(C)(=O)=O)ccc1NCC#Cc1nc2c(NC3CCN(C)CC3)cc(O)cn2c1CC(F)(F)F [Example 27, 2-{3-[(4-methanesulfonyl-2-methoxyphenyl)amino]prop-1-yn-1-yl}-8-[(1-methylpiperidin-4-yl)amino]-3-(2,2,2-trifluoroethyl)imidazo[1,2-a]pyridin-6-ol, TFA salt] | 5 to 10 | < 70 | > 3000 | > 3000 | ≥ 10000 | > 3000 | 
8 | CNC(=O)c1cnc(OC)c(NCC#Cc2nc3c(N[C@@H]4C[C@H]5CC[C@@H]([C@@H]4F)N5C)cccn3c2SC(F)(F)F)c1 [Example 265] |  |  |  |  |  |  | Kd [2]: < 10 nM; ΔTm at 10 µM ([1]; p53 Y220C, read-out: TSA P53 Y220C dTM): ≥ 10 °C; AC50 (p53 Y220C; AC50, luciferase reporter, NClH1299 inducible p53 Y220C): < 750 nM; Emax (p53 Y220C; Emax, luciferase reporter, NClH1299 inducible p53 Y220C): > 90%; IC50 (H1299 p53 Y220C; NClH1299-inducible p53 Y220C cells, CellTiter-Glo): < 750 nM
9 | [2H]C([2H])([2H])N1CC[C@@H](Nc2cccn3c(SC(F)(F)F)c(C#CCNc4ccc(C(=O)NC)cc4OC)nc23)[C@@H](F)C1 [Example 476, 4-((3-(8-(((3S,4R)-3-fluoro-1-(methyl-d3)piperidin-4-yl)amino)-3-((trifluoromethyl)thio)imidazo[1,2-a]pyridin-2-yl)prop-2-yn-1-yl)amino)-3-methoxy-N-methylbenzamide] |  |  |  |  |  |  | Kd [2]: < 10 nM; ΔTm at 10 µM ([1]; read-out: TSA P53 Y220C dTM): ≥ 10 °C; AC50 (p53 Y220C; AC50, NClH1299 cells with inducible p53 Y220C): < 750 nM; Emax (p53 Y220C; Emax, NClH1299 cells with inducible p53 Y220C, 10 uM tool compound as positive control): > 90%; IC50 (H1299 p53 Y220C; NClH1299-inducible p53 Y220C cells): < 750 nM

Further lines, with some results ahead:

Row | ΔTm at 100 µM ([1]; thermal shift) [°C] | Emax (p53 Y220C; [3]) [%] | AC50 (p53 Y220C; [4]) [nM] | IC50 (H1299 p53 Y220C; CellTiter-Glo, H1299 p53 Y220C) [nM] | IC50 (H1299 p53 R273H) [nM] | Compound | IC50 (NUGC3 p53 Y220C) [nM] | other results
10 | ≥ 10 | 80 to 90 | < 750 | < 750 | 8000 to 10000 | CNC(=O)c1ccc(NCC#Cc2nc3c(N[C@@H]4CCN(C)C[C@@H]4F)cccn3c2SC(F)(F)F)c(OC)c1 [Example 28, 4-{[3-(8-{[(3S,4R)-3-fluoro-1-methylpiperidin-4-yl]amino}-3-[(trifluoromethyl)sulfanyl]imidazo[1,2-a]pyridin-2-yl)prop-2-yn-1-yl]amino}-3-methoxy-N-methylbenzamide, formic acid salt] | < 750 | ΔTm at 10 µM ([1]; thermal shift, read-out: TSA P53 Y220C dTM (10 uM)): ≥ 10 °C
11 | 1 to 5 | < 70 | > 3000 | 1500 to 3000 | < 5000 | COc1cc(S(C)(=O)=O)ccc1NCC#Cc1nc2c(NC3CCN(C)CC3)cc(-c3ccccc3)cn2c1CC(F)(F)F [Example 34, N-(2-{3-[(4-methanesulfonyl-2-methoxyphenyl)amino]prop-1-yn-1-yl}-6-phenyl-3-(2,2,2-trifluoroethyl)imidazo [1,2-a]pyridin-8-yl)-1-methylpiperidin-4-amine, formic acid salt] | 1500 to 3000 | 
12 | 1 to 5 | < 70 | > 3000 | > 3000 | ≥ 10000 | CNC(=O)c1ccc(NCC#Cc2nc3c(NC4CCN(C)CC4)cc(NC(C)=O)cn3c2CC(F)(F)F)c(OC)c1 [Example 41, 4-[(3-{6-acetamido-8-[(1-methylpiperidin-4-yl)amino]-3-(2,2,2-trifluoroethyl)imidazo[1,2-a]pyridin-2-yl}prop-2-yn-1-yl)amino]-3-methoxy-N-methylbenzamide] | > 3000 | 
13 | < 1 | < 70 | > 3000 | > 3000 | ≥ 10000 | C=CC(=O)Nc1cc(NC2CCN(C)CC2)c2nc(C#CCNc3ccc(C(=O)NC)cc3OC)c(CC(F)(F)F)n2c1 [Example 42, 3-methoxy-N-methyl-4-[(3-{8-[(1-methylpiperidin-4-yl)amino]-6-(prop-2-enamido)-3-(2,2,2-trifluoroethyl)imidazo[1,2-a]pyridin-2-yl}prop-2-yn-1-yl)amino]benzamide] | > 3000 | 
14 | 1 to 5 | < 70 | > 3000 | > 3000 | ≥ 10000 | CNC(=O)c1ccc(NCC#Cc2nc3c(NC4CCN(C)CC4)cc(NC(=O)C(F)Cl)cn3c2CC(F)(F)F)c(OC)c1 (stereo not shown) [Example 43, 4-((3-[6-(2-chloro-2-fluoroacetamido)-8-[(1-methylpiperidin-4-yl)amino]-3-(2,2,2-trifluoroethyl)imidazo[1,2-a]pyridin-2-yl]prop-2-yn-1-ylamino)-3-methoxy-N-methylbenzamide, formic acid salt] | > 3000 | 
